Measured values reported in PubChem BioAssay AID248 (DTP/NCI, 2004).
Several values for one entry are separate records, joined by “and”; a condition that tells them apart may be missing. Equal values may be shown once. Inconclusive results and toxic doses are left out.

System: L1210 leukemia ip in BDF1 mice, survival T/C
Experiment: NCI In Vivo Anticancer Drug Screen. Data for tumor model L1210 Leukemia (intraperitoneal) in B6D2F1 (BDF1) mice
Settings: endpoint: mean survival time, higher = longer survival
In short: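 Mice bearing the transplanted tumor received compound or vehicle. Survival of the treated group was divided by that of the vehicle-treated control group to give the ratio.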

[1] = dose: 100.0 mg/kg/injection, schedule: Q01DX009 (ip), vehicle: saline with Tween-80
[2] = dose: 200.0 mg/kg/injection, schedule: Q01DX009 (ip), vehicle: saline with Tween-80
[3] = dose: 400.0 mg/kg/injection, schedule: Q01DX009 (ip), vehicle: saline with Tween-80
[4] = dose: 50.0 mg/kg/injection, schedule: Q01DX009 (ip), vehicle: saline with Tween-80
[5] = dose: 100.0 mg/kg/injection, schedule: Q01DX001 (ip), vehicle: saline with Tween-80
[6] = dose: 100.0 mg/kg/injection, schedule: Q04DX003 (ip), vehicle: saline with Tween-80
[7] = dose: 200.0 mg/kg/injection, schedule: Q01DX001 (ip), vehicle: saline with Tween-80
[8] = dose: 200.0 mg/kg/injection, schedule: Q04DX003 (ip), vehicle: saline with Tween-80
[9] = dose: 100.0 mg/kg/injection, schedule: Q04DX002 (ip), vehicle: Klucel (hydroxypropylcellulose) (HPC)
[10] = dose: 200.0 mg/kg/injection, schedule: Q04DX002 (ip), vehicle: Klucel (hydroxypropylcellulose) (HPC)
[11] = dose: 400.0 mg/kg/injection, schedule: Q04DX002 (ip), vehicle: Klucel (hydroxypropylcellulose) (HPC)

## COC1OC(CO)C(O)C(NC(=O)N(C)N=O)C1O (stereo not drawn)
dose: 12.5 mg/kg/injection, schedule: Q01DX009 (ip), vehicle: saline
  T/C: 112 % of control
dose: 25.0 mg/kg/injection, schedule: Q04DX003 (ip), vehicle: saline
  T/C: 106 % of control
dose: 44.0 mg/kg/injection, schedule: Q01DX009 (ip), vehicle: saline
  T/C: 124 % of control
dose: 50.0 mg/kg/injection, schedule: Q01DX009 (ip), vehicle: saline
  T/C: 181 % of control
dose: 50.0 mg/kg/injection, schedule: Q04DX003 (ip), vehicle: saline
  T/C: 105 % of control
dose: 66.0 mg/kg/injection, schedule: Q04DX003 (ip), vehicle: saline
  T/C: 100 % of control
dose: 100.0 mg/kg/injection, schedule: Q01DX009 (ip), vehicle: saline
  T/C: 103 % of control and 218 % of control
dose: 100.0 mg/kg/injection, schedule: Q04DX003 (ip), vehicle: Klucel (hydroxypropylcellulose) (HPC)
  T/C: 119 % of control
dose: 100.0 mg/kg/injection, schedule: Q04DX003 (ip), vehicle: saline
  T/C: 158 % of control
dose: 150.0 mg/kg/injection, schedule: Q04DX003 (ip), vehicle: saline
  T/C: 105 % of control
dose: 200.0 mg/kg/injection, schedule: Q04DX003 (ip), vehicle: saline
  T/C: 166 % of control
dose: 400.0 mg/kg/injection, schedule: Q01DX009 (ip), vehicle: saline
  T/C: 100 % of control
dose: 400.0 mg/kg/injection, schedule: Q04DX003 (ip), vehicle: Klucel (hydroxypropylcellulose) (HPC)
  T/C: 171 % of control
dose: 400.0 mg/kg/injection, schedule: Q04DX003 (ip), vehicle: saline
  T/C: 100 % of control and 214 % of control

## CC1(C)N=C(N)N=C(N)N1c1cccc(OCc2cccc([N+](=O)[O-])c2)c1
dose: 5.0 mg/kg/injection, schedule: Q01DX001 (ip), vehicle: saline
  T/C: 104 % of control
dose: 10.0 mg/kg/injection, schedule: Q01DX001 (ip), vehicle: saline
  T/C: 98 % of control
dose: 20.0 mg/kg/injection, schedule: Q01DX001 (ip), vehicle: saline
  T/C: 110 % of control
dose: 40.0 mg/kg/injection, schedule: Q01DX001 (ip), vehicle: saline
  T/C: 89 % of control
dose: 100.0 mg/kg/injection, schedule: Q01DX001 (ip), vehicle: saline
  T/C: 96 % of control

## O=C1c2ccccc2C(=O)N1CNc1ccc(Cl)cn1
[1]
  T/C: 89 % of control
[2]
  T/C: 87 % of control
[3]
  T/C: 101 % of control

## CCCC(NCc1ccccc1)C(=O)O (stereo not drawn)
dose: 100.0 mg/kg/injection, schedule: Q01DX009 (ip), vehicle: acetone
  T/C: 90 % of control
dose: 200.0 mg/kg/injection, schedule: Q01DX009 (ip), vehicle: acetone
  T/C: 90 % of control
dose: 400.0 mg/kg/injection, schedule: Q01DX009 (ip), vehicle: acetone
  T/C: 90 % of control

## CCCSc1nccc2n[nH]nc12
[4]
  T/C: 95 % of control
dose: 50.0 mg/kg/injection, schedule: Q04DX003 (ip), vehicle: saline with Tween-80
  T/C: 98 % of control
[5]
  T/C: 90 % of control
[1]
  T/C: 93 % of control
[6]
  T/C: 96 % of control
[7]
  T/C: 95 % of control
[2]
  T/C: 95 % of control
[8]
  T/C: 100 % of control

## O=C1c2ccccc2C(=O)N1CCOCCOCCOCCN1C(=O)c2ccccc2C1=O
[4]
  T/C: 97 % of control
[1]
  T/C: 91 % of control
[9]
  T/C: 102 % of control
[2]
  T/C: 94 % of control
[10]
  T/C: 94 % of control
[11]
  T/C: 102 % of control

## CN(C)CC/C(=N\Nc1ccc([N+](=O)[O-])cc1[N+](=O)[O-])c1ccccc1
[5]
  T/C: 94 % of control
[7]
  T/C: 92 % of control
dose: 400.0 mg/kg/injection, schedule: Q01DX001 (ip), vehicle: saline with Tween-80
  T/C: 92 % of control

## C=Cc1ccc(Oc2ccccc2)cc1
[4]
  T/C: 98 % of control
[1]
  T/C: 112 % of control

## SC12CC3CC(CC(C3)C1)C2
[9]
  T/C: 87 % of control
[10]
  T/C: 94 % of control
[11]
  T/C: 98 % of control

## COc1ccc(C2CCc3cc4c(cc3/C2=N/O)OCO4)cc1OC (stereo not drawn)
[1]
  T/C: 98 % of control
[6]
  T/C: 90 % of control
[2]
  T/C: 92 % of control
[8]
  T/C: 90 % of control
[3]
  T/C: 105 % of control
dose: 400.0 mg/kg/injection, schedule: Q04DX003 (ip), vehicle: saline with Tween-80
  T/C: 91 % of control
